Among the data in PubChem BioAssay (NCI) are TGI and GI50 values, retold here.

Test systems include DMS 273 small cell lung; HOP-18 NSCLC; LXFL 529 NSCLC; SNB-78 CNS; BT-549 breast; MDA-MB-231 breast; MDA-N.
Holding throughout (experiment): NCI-60 cell line screen, 48 h

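Five compound concentrations were applied to cells in 96-well plates for 48 hours; endpoints were derived by simple linear interpolation of the resulting dose-response curve. GI50 = concentration required for 50% inhibition of growth. TGI denotes the concentration required for complete inhibition of growth.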 Where a SMILES comes first, the peptide text is derived from it. [ ]: non-standard residue; d: D form.

Turning to `O/N=C1\C(=C\c2ccc3c(c2)OCCO3)CCCC1C(NO)c1ccc2c(c1)OCCO2` (stereo unspecified), the TGI in the assay on DMS 273 small cell lung was 43 µM; with HOP-18 NSCLC, over 100 µM; with LXFL 529 NSCLC, 62.7 µM; in the assay on SNB-78 CNS, over 100 µM.
Take `O=C1C(=Cc2ccc(F)cc2)C(=O)c2ccccc21`: the TGI with DMS 273 small cell lung and in the assay with LXFL 529 NSCLC was over 100 µM in each case.
As to `C=CCCC(=O)CC(=O)OCc1ccccc1`, the TGI in the assay on DMS 273 small cell lung, in the assay on HOP-18 NSCLC, in the assay on LXFL 529 NSCLC and with SNB-78 CNS was over 100 µM throughout.
For `COC(=O)C(=O)C(C#N)c1c(Cl)cccc1Cl` (stereo unspecified), the TGI in the assay with DMS 273 small cell lung, in the assay on LXFL 529 NSCLC and with SNB-78 CNS was over 100 µM throughout.
Take `CC(=O)[O][Hg][c]1s[c]([Hg][O]C(C)=O)[c]([Hg][O]C(C)=O)[c]1[Hg][O]C(C)=O`: the GI50 is 3.6 µM in the assay on DMS 273 small cell lung, 1.79 µM in the assay on LXFL 529 NSCLC and 1.42 µM in the assay with SNB-78 CNS. In addition, the figures for the TGI with DMS 273 small cell lung and in the assay with LXFL 529 NSCLC were over 100 µM and 9.72 µM, respectively.
As to `O=C1CC2OCC=C3CN4CCC5(C(=O)O)C(N1)C2C3CC45` (stereo unspecified), the TGI in the assay on BT-549 breast, in the assay with MDA-MB-231 breast and in the assay with MDA-N was over 100 µM in each case.
In the case of `COc1cc(CCc2ccncc2)cc(OC)c1OC`, the TGI with DMS 273 small cell lung, in the assay with HOP-18 NSCLC, with LXFL 529 NSCLC and in the assay on SNB-78 CNS was over 100 µM each time.
As for `CCOc1ccccc1N=Cc1c2ccccc2cc2ccccc12`, the TGI in the assay with BT-549 breast turned out to be 70.1 µM; in the assay on MDA-MB-231 breast it was 67.4 µM; with MDA-N it was 53.3 µM.
Turning to `Cc1nc(-n2nc(-c3ccccc3)cc2-c2ccccc2)sc1C(=O)/C=C/c1cccc([N+](=O)[O-])c1`, the TGI in the assay on DMS 273 small cell lung is 83.1 µM; with HOP-18 NSCLC, 24.5 µM; in the assay on SNB-78 CNS it was over 100 µM.
With `CC1=CC(=O)N2C(OC[C@@H]2c2ccccc2)O1` (stereo partly specified), the TGI with HOP-18 NSCLC and with LXFL 529 NSCLC was over 100 µM in each case.
Turning to `N#C/C(=C1\OC(N)=C(c2ccc(Cl)cc2)C1=O)c1ccc(Cl)cc1`, the TGI in the assay on DMS 273 small cell lung came out at 26.7 µM; with HOP-18 NSCLC, 30.8 µM; in the assay with LXFL 529 NSCLC, 24.3 µM; in the assay on SNB-78 CNS, 31.4 µM.
For `Cc1ccc(C)c(NC(=O)C(=O)Nn2c(=S)[nH]c3ccccc3c2=O)c1`, the TGI in the assay with DMS 273 small cell lung, with HOP-18 NSCLC, in the assay with LXFL 529 NSCLC and in the assay with SNB-78 CNS was over 100 µM throughout.
On to `C1CC[N-]CC1.CC(=N\O)/C(C)=N/O.CC(=N\O)/C(C)=N/O.C[CH-]C(C)O.[Co+2]`, for which the GI50 in the assay with BT-549 breast was 28.5 µM; in the assay on MDA-MB-231 breast, 27.2 µM; in the assay on MDA-N it was 26.6 µM. Further, the TGI was 79.7 µM with BT-549 breast, 64 µM in the assay with MDA-MB-231 breast and 77 µM in the assay on MDA-N.
Turning to `NC1=Nc2ccccc2Sc2ccccc21`, the TGI in the assay on DMS 273 small cell lung, with HOP-18 NSCLC and in the assay with SNB-78 CNS was over 100 µM each time.
As to `Cc1c(Cl)cccc1NC(=O)C(=O)c1c(O)c2ccc(O)cc2oc1=O`, the TGI in the assay on DMS 273 small cell lung, in the assay with HOP-18 NSCLC, with LXFL 529 NSCLC and in the assay with SNB-78 CNS was over 100 µM in each case.
Regarding `O=C(N/C(=C\c1ccc(F)cc1)c1nc2ccccc2[nH]1)c1ccccc1`, the TGI in the assay with HOP-18 NSCLC, in the assay with LXFL 529 NSCLC and with SNB-78 CNS was over 100 µM throughout.
Consider `COC1CC(n2cc(F)c(N)nc2=O)OC1CO` (stereo unspecified), for which the TGI in the assay on DMS 273 small cell lung, in the assay with HOP-18 NSCLC, in the assay with LXFL 529 NSCLC and with SNB-78 CNS was over 100 µM throughout.
`O=C1C(OC(=O)c2ccccc2)=C(c2ccc(O)cc2)C(=O)C(OC(=O)c2ccccc2)=C1c1ccc(O)cc1`: the TGI in the assay with BT-549 breast, in the assay with MDA-MB-231 breast and with MDA-N was over 100 µM throughout.
On to `N#CNC1=NCCC(=O)N1CCc1c[nH]c2ccccc12`, for which the TGI in the assay with DMS 273 small cell lung, with LXFL 529 NSCLC and with SNB-78 CNS was over 100 µM throughout.
For the compound `CC1(C2CCC3(C)C(C2)C3Sc2ccccc2)OCCO1` (stereo unspecified), the TGI in the assay with DMS 273 small cell lung was 60 µM; in the assay on LXFL 529 NSCLC, over 100 µM; in the assay on SNB-78 CNS, over 100 µM.
Take `CC(CC(=O)Nc1ccc(NC(=O)CC(C)N=NC(N)=O)cc1)N=NC(N)=O` (stereo unspecified): the TGI in the assay with DMS 273 small cell lung, in the assay with HOP-18 NSCLC and in the assay on LXFL 529 NSCLC was over 100 µM in each case.
For the compound `C/C(=N\Nc1n[nH]c(=S)n1N)c1c(O)cc(C)oc1=O`, the TGI in the assay with HOP-18 NSCLC, in the assay on LXFL 529 NSCLC and in the assay with SNB-78 CNS was over 100 µM each time.
On to `CCOC(=O)C(=O)Nc1nc2ccc(C)cc2s1`, for which the TGI in the assay on DMS 273 small cell lung, in the assay on LXFL 529 NSCLC and in the assay on SNB-78 CNS was over 100 µM each time.
For `CCOc1ccccc1NC(=O)C1=C(C)NC(C)=C(C(=O)Nc2ccccc2OCC)C1c1cccc([N+](=O)[O-])c1`, the TGI with DMS 273 small cell lung, in the assay with LXFL 529 NSCLC and with SNB-78 CNS was over 100 µM throughout.
Turning to `Oc1ccc(O)c(-n2cccn2)c1-n1cccn1`, the TGI in the assay with DMS 273 small cell lung, in the assay on LXFL 529 NSCLC and in the assay on SNB-78 CNS was over 100 µM each time.
Take `CSCC[C@H](NC(=O)[C@@H](N)CC(N)=O)C(=O)N[C@@H](Cc1c[nH]c2ccccc12)C(=O)N[C@@H](CCC(N)=O)C(=O)N[C@@H](CCC(=O)O)C(=O)N[C@H](C(=O)NCC(=O)N[C@@H](CCCCN)C(=O)N[C@H](C)C(=O)O)C(C)C` (H-NMWQEVGK[dA]-OH): the TGI with MDA-MB-231 breast and in the assay with MDA-N was over 100 µM in each case.
For the compound `NC1=C(O)C(=O)C(c2c[nH]c3ccc(OCc4ccccc4)cc23)O1` (stereo unspecified), the TGI in the assay with BT-549 breast, in the assay with MDA-MB-231 breast and in the assay with MDA-N was over 100 µM throughout.
As for `C[C@H]1CCC2C(OC(=O)[C@@H]2CN(C)C)[C@]2(C)C(=O)C=CC12O` (stereo partly specified), the TGI in the assay on BT-549 breast turned out to be 25.2 µM; in the assay on DMS 273 small cell lung, 18.8 µM; in the assay with HOP-18 NSCLC it was 38.9 µM; with LXFL 529 NSCLC, 12.4 µM; with MDA-MB-231 breast, 25.4 µM; in the assay with MDA-N it was 13.3 µM.
For the compound `CN(C)Cc1cc(C(C)(C)C)cc(CN(C)C)c1O`, the TGI in the assay with BT-549 breast, with MDA-MB-231 breast and in the assay with MDA-N was over 100 µM throughout.
Regarding `C=C1C(=O)OC2(C)CCC1CC1OC1(C)CCC=C(C)CCC2O` (stereo unspecified), the figures for the TGI in the assay on BT-549 breast, with MDA-MB-231 breast and in the assay with MDA-N were over 100 µM, over 100 µM and 97.4 µM, respectively.
In the case of `COc1ccc(F)cc1-c1ccnc2[nH]c(C3=CCN(C4CCC(CC(=O)O)CC4)CC3)cc12` (stereo unspecified), in the assay with BT-549 breast, the GI50 is 0.156 µM and the TGI is 0.903 µM. For the same compound, the GI50 with MDA-MB-231 breast is 0.205 µM.
As to `COc1cc2c(=O)n(CC3CCCCC3)c3c4cc[nH]c4ncc3c2cc1OC`, in the assay on BT-549 breast, the GI50 is 0.807 µM and the TGI turned out to be 14.7 µM. Moreover, in the assay with MDA-MB-231 breast, the GI50 is 1.13 µM and the TGI was found to be 7.59 µM.
For the compound `CNc1nc(-c2ccc3c(N)n[nH]c3c2)cc(N2C[C@@H](C(=O)NC3CCCCC3)CC[C@H]2C)n1`, the GI50 in the assay with BT-549 breast is 1.91 µM; with MDA-MB-231 breast, 2.61 µM. The TGI was found to be 12.3 µM in the assay on BT-549 breast and 15.7 µM in the assay with MDA-MB-231 breast.
The corresponding values for `O=C(/C=C/c1ccc(Cl)cc1Cl)c1ccc(Cl)cc1Cl` are 16 µM, 4.5 µM, 36.1 µM and 27 µM.
On the same counts, the results for `CS(=O)(=O)CCNCc1ccoc1-c1ccc2ncnc(Nc3ccc(OCc4ccccc4)cc3)c2c1` are over 25 µM, over 25 µM, over 25 µM and over 25 µM.
Turning to `CCCC(=O)OC(OC(=O)CCC)c1ccc([N+](=O)[O-])o1`, the TGI in the assay with BT-549 breast was over 100 µM; in the assay with MDA-MB-231 breast, 68 µM; in the assay with MDA-N, 46.3 µM.
The corresponding values for `C[C@H]1CC[C@@H]2[C@@H](C)[C@H]3[C@H](C[C@H]4[C@@H]5CC=C6C[C@@H](O)CC[C@]6(C)[C@H]5CC[C@]34C)N2C1` are over 100 µM, over 100 µM and over 100 µM.
`COC(=O)[C@@H](C)C[C@H](Cc1ccccc1)NC(=O)c1csc([C@@H](C[C@H](C(C)C)N(C)C(=O)[C@@H](NC(=O)[C@H]2CCCCN2C)C(C(F)(F)F)C(F)(F)F)OC(C)=O)n1`: the GI50 with BT-549 breast is 0.054 µM; in the assay with MDA-MB-231 breast it was 0.0734 µM. Besides, the TGI with BT-549 breast turned out to be 0.779 µM; with MDA-MB-231 breast, 3.06 µM.
For `O=S(=O)(Nc1ccc(Cl)c(Cl)c1)c1ccc(-c2cnc(C3CC3)o2)cc1`, the GI50 in the assay with BT-549 breast was 0.911 µM; with MDA-MB-231 breast it was 1.59 µM. Also, the results for the TGI in the assay on BT-549 breast and in the assay with MDA-MB-231 breast were 18.2 µM and 15.8 µM, respectively.
For the compound `N/C(CC(=O)NOC(=O)c1ccccc1)=N/OC(=O)c1ccccc1`, the figures for the TGI in the assay on BT-549 breast, with MDA-MB-231 breast and with MDA-N were 77.6 µM, over 100 µM and over 100 µM, respectively.
With `Nc1ccn(C2CC3OCC3O2)c(=O)n1` (stereo unspecified), the TGI in the assay on BT-549 breast, in the assay on MDA-MB-231 breast and with MDA-N was over 100 µM each time.
